Source: the NIST ThermoML archive (doi:10.1021/acs.jced.5b00366)

How the values were obtained:
[1] = mn = molality of the nth substance listed, in mol/kg; settings: 102 kPa, Liquid, Vibrating tube method
[2] = 102 kPa, Liquid, Vibrating tube method
[3] = xn = mol fraction of the nth substance listed; settings: 102 kPa, Liquid, Vibrating tube method

[Cd+2].[I-].[I-] [cadmium iodide (CdI2)] + CCCCO
mass density [kg/m3], [1]
Settings	m1 = 0.004	m1 = 0.005	m1 = 0.006	m1 = 0.008	m1 = 0.01	m1 = 0.02	m1 = 0.05	m1 = 0.08
293.15 K	811.57	811.75	811.98	812.48	813.03	815.24	822.26	830.17
298.15 K	807.62	807.92	808.19	808.94	809.67	811.39	819.27	826.26
303.15 K	803.74	804.06	804.49	805.19	805.87	807.51	814.48	822.32
308.15 K	799.64	800.2	800.59	801.3	802.1	803.62	810.6	818.39

CO [methanol]
[2]
Settings	mass density [kg/m3]
293.15 K	791.34
298.15 K	786.68
303.15 K	781.96
308.15 K	777.21

CCCCO [butan-1-ol]
[2]
Settings	mass density [kg/m3]
293.15 K	809.84
298.15 K	806.03
303.15 K	802.19
308.15 K	798.38

CCCCO [butan-1-ol] + CO
mass density [kg/m3], [3]
Settings	293.15 K	298.15 K	303.15 K	308.15 K
x1 = 0.05	793	788.48	783.92	779.32
x1 = 0.1	794.55	790.15	785.69	781.19
x1 = 0.15	795.82	791.52	787.15	782.74
x1 = 0.2	797.09	792.81	788.52	784.19
x1 = 0.25	798.29	794.06	789.82	785.52
x1 = 0.3	799.4	795.23	791.01	786.78
x1 = 0.4	801.48	797.4	793.26	789.13
x1 = 0.5	803.28	799.27	795.21	791.18
x1 = 0.6	804.87	800.94	796.94	792.99
x1 = 0.7	806.38	802.48	798.57	794.64
x1 = 0.8	807.62	803.77	799.91	796.04
x1 = 0.9	808.83	804.99	801.12	797.29
x1 = 1	809.84	806.03	802.19	798.38

CO [methanol] + CCCCO
[3], x2 = 0
Settings	mass density [kg/m3]
293.15 K	791.34
298.15 K	786.68
303.15 K	781.96
308.15 K	777.21

[Cd+2].[I-].[I-] [cadmium iodide (CdI2)] + CO
mass density [kg/m3], [1]
Settings	m1 = 0.004	m1 = 0.005	m1 = 0.006	m1 = 0.008	m1 = 0.01	m1 = 0.02	m1 = 0.05	m1 = 0.08
293.15 K	792.58	792.87	793.02	793.63	794.17	797.09	805.07	811.5
298.15 K	787.92	788.22	788.45	789.1	789.72	792.37	800.28	806.75
303.15 K	783.18	783.49	783.71	784.31	784.72	787.65	795.4	801.87
308.15 K	778.43	778.74	778.86	779.43	780.04	782.94	790.79	797.4
